The source made the active and inactive calls. The calls are words filed in the database; no cut-off is given here.
Experiments:
[1] = Therapeutic index, ratio of TC50 for human MT4 cells to IC50 for HIV1 3B; assay type: cell-based
[2] = AUC (0 to infinity) in Sprague-Dawley rat at 5 mg/kg, po; assay type: ADME, organism-based; set-up: time infinity, dose 5 mg/kg, route oral; details: plasma
[3] = tested on: Human immunodeficiency virus 1; assay: Antiviral activity against HIV1 3B replication in human PBMC assessed as reverse transcriptase activity after 7 days; assay type: functional, organism-based; details: for IC50: Human immunodeficiency virus 1, 3B, 168 h
[4] = Cmax in Sprague-Dawley rat at 5 mg/kg, po; assay type: ADME, organism-based; set-up: dose 5 mg/kg, route oral; details: in vivo
[5] = Metabolic stability in human liver microsomes assessed as compound remaining after 40 mins; assay type: ADME, Microsome; details: read-out: Stability
[6] = tested on: Human immunodeficiency virus 1; assay: Antiviral activity against HIV1 NL4-3 infected in human MT4 cells assessed as cytoprotection against virus-induced cytopathic effect after 4 days by cell viability assay; assay type: functional, organism-based; details: Human immunodeficiency virus 1, NL4-3, MT4, 96 h
[7] = Oral bioavailability in Sprague-Dawley rat at 5 mg/kg; assay type: ADME, organism-based; details: in vivo
[8] = Half life in Sprague-Dawley rat at 5 mg/kg, po; assay type: ADME, organism-based; set-up: dose 5 mg/kg, route oral; details: in vivo
[9] = (§1) Cytotoxicity against human PBMC by cell viability assay; assay type: cell-based; details: read-out: TC50 (the source's name)
[10] = Metabolic stability in Sprague-Dawley rat liver microsomes assessed as compound remaining after 40 mins; assay type: ADME, Microsome; details: read-out: Stability
[11] = Therapeutic index, ratio of TC50 for human MT4 cells to EC50 for HIV1 NL43; assay type: cell-based
[12] = Cytotoxicity against human MT4 cells after 4 days by cell viability assay; assay type: cell-based; details: read-out: TC50
[13] = Tmax in Sprague-Dawley rat at 5 mg/kg, po; assay type: ADME, organism-based; set-up: dose 5 mg/kg, route oral; details: in vivo
[14] = AUC (0 to infinity) in Sprague-Dawley rat at 10 mg/kg, po; assay type: ADME, organism-based; set-up: time infinity, dose 10 mg/kg, route oral; details: plasma
[15] = Oral bioavailability in Sprague-Dawley rat at 7.5 mg/kg; assay type: ADME, organism-based; details: in vivo
[16] = Cmax in Sprague-Dawley rat at 7.5 mg/kg, po; assay type: ADME, organism-based; set-up: dose 7.5 mg/kg, route oral; details: in vivo
[17] = Half life in Sprague-Dawley rat at 7.5 mg/kg, po; assay type: ADME, organism-based; set-up: dose 7.5 mg/kg, route oral; details: in vivo
[18] = Half life in Sprague-Dawley rat at 10 mg/kg, po; assay type: ADME, organism-based; set-up: dose 10 mg/kg, route oral; details: in vivo
[19] = Tmax in Sprague-Dawley rat at 10 mg/kg, po; assay type: ADME, organism-based; set-up: dose 10 mg/kg, route oral; details: in vivo
[20] = AUC (0 to infinity) in Sprague-Dawley rat at 7.5 mg/kg, po; assay type: ADME, organism-based; set-up: time infinity, dose 7.5 mg/kg, route oral; details: plasma
[21] = Oral bioavailability in Sprague-Dawley rat at 10 mg/kg; assay type: ADME, organism-based; details: in vivo
[22] = Tmax in Sprague-Dawley rat at 7.5 mg/kg, po; assay type: ADME, organism-based; set-up: dose 7.5 mg/kg, route oral; details: in vivo
[23] = Cmax in Sprague-Dawley rat at 10 mg/kg, po; assay type: ADME, organism-based; set-up: dose 10 mg/kg, route oral; details: in vivo
PBMC = assay: as §1; assay type: cell-based

Compound | selectivity ratio [1] | AUC(0-inf) [2] [ng·h/mL] | IC50 [3] [nM] | Cmax [4] [nM] | remaining at 40 min [5] [%] | EC50 [6] [nM] | bioavailability [7] [%] | half-life [8] [h] | CC50 [9] [nM] | remaining at 40 min [10] [%] | selectivity ratio [11] | CC50 at 96 h [12] [nM] | Tmax [13] [h] | also measured
C=C(C)[C@@H]1CC[C@]2(C(=O)NCc3ccccc3C(=O)O)CC[C@]3(C)[C@H](CC[C@@H]4[C@@]5(C)CC[C@H](OC(=O)CC(C)(C)C(=O)O)C(C)(C)[C@@H]5CC[C@]43C)[C@@H]12 | > 400 | 1700 | 16 | 580 | > 60 | 6 | 56.4 | 2 | 9700 | > 60 | > 400 | 4500 | 3.2 | 
C=C(C)[C@@H]1CC[C@]2(C(=O)NCc3ccc(Cl)cc3)CC[C@]3(C)[C@H](CC[C@@H]4[C@@]5(C)CC[C@H](OC(=O)CC(C)(C)C(=O)O)C(C)(C)[C@@H]5CC[C@]43C)[C@@H]12 | > 400 | 1340 | 27 | 270 | > 60 | 17.9 | 3.91 | 8 | > 10000 | > 60 | > 400 | > 10000 | 2 | 
C=C(C)[C@@H]1CC[C@]2(C(=O)NCCc3ccccc3C(=O)NCCC(=O)O)CC[C@]3(C)[C@H](CC[C@@H]4[C@@]5(C)CC[C@H](OC(=O)CC(C)(C)C(=O)O)C(C)(C)[C@@H]5CC[C@]43C)[C@@H]12 |  |  | 9.4 |  | > 40 | 3.1 |  |  | 11000 | > 40 |  | 9600 |  | AUC(0-inf) [14]: 1260 ng·h/mL; bioavailability [15]: 15.5%; Cmax [16]: 860 nM; half-life [17]: 4.54 h; half-life [18]: 7.8 h; Tmax [19]: 4 h; AUC(0-inf) [20]: 1650 ng·h/mL; bioavailability [21]: 1.6%; Tmax [22]: 1 h; Cmax [23]: 70 nM
C=C(C)[C@@H]1CC[C@]2(C(=O)NCc3ccc(F)cc3C(=O)O)CC[C@]3(C)[C@H](CC[C@@H]4[C@@]5(C)CC[C@H](OC(=O)CC(C)(C)C(=O)O)C(C)(C)[C@@H]5CC[C@]43C)[C@@H]12 | > 400 |  | 4 |  | 10 | 52 |  |  | 1500 | 10 | > 400 | 3200 |  | 
C=C(C)[C@@H]1CC[C@]2(C(=O)NCc3ccc(OC(F)(F)F)cc3)CC[C@]3(C)[C@H](CC[C@@H]4[C@@]5(C)CC[C@H](OC(=O)CC(C)(C)C(=O)O)C(C)(C)[C@@H]5CC[C@]43C)[C@@H]12 | > 400 |  |  |  | 10 | 190 |  |  |  | 10 | > 400 | 1000 |  | Activity [3]: inactive; TC50 (PBMC): Not Active
C=C(C)[C@@H]1CC[C@]2(C(=O)NCCc3ccc(OC)cc3)CC[C@]3(C)[C@H](CC[C@@H]4[C@@]5(C)CC[C@H](OC(=O)CC(C)(C)C(=O)O)C(C)(C)[C@@H]5CC[C@]43C)[C@@H]12 |  | 245 | 60 | 40 |  | 12 | 1.84 | 4.8 | 1000 |  |  | > 10000 | 2 | 
C=C(C)[C@@H]1CC[C@]2(C(=O)NCc3ccccc3OC)CC[C@]3(C)[C@H](CC[C@@H]4[C@@]5(C)CC[C@H](OC(=O)CC(C)(C)C(=O)O)C(C)(C)[C@@H]5CC[C@]43C)[C@@H]12 | > 400 | 114 | 7 | 40 | 10 | 24 |  | 2 | > 10000 | 10 | > 400 | > 10000 | 2 | 
C=C(C)[C@@H]1CC[C@]2(C(=O)NCc3ccc(OC)cc3)CC[C@]3(C)[C@H](CC[C@@H]4[C@@]5(C)CC[C@H](OC(=O)CC(C)(C)C(=O)O)C(C)(C)[C@@H]5CC[C@]43C)[C@@H]12 | > 400 |  | 23.5 |  | 10 | 26 |  |  | > 10000 | 10 | > 400 | > 10000 |  | 
C=C(C)[C@@H]1CC[C@]2(C(=O)NCc3cccc(OC)c3)CC[C@]3(C)[C@H](CC[C@@H]4[C@@]5(C)CC[C@H](OC(=O)CC(C)(C)C(=O)O)C(C)(C)[C@@H]5CC[C@]43C)[C@@H]12 | > 400 |  | 14 |  | 10 | 19 |  |  | > 10000 | 10 | > 400 | > 10000 |  | 
C=C(C)[C@@H]1CC[C@]2(C(=O)NCc3cccc(OC(F)(F)F)c3)CC[C@]3(C)[C@H](CC[C@@H]4[C@@]5(C)CC[C@H](OC(=O)CC(C)(C)C(=O)O)C(C)(C)[C@@H]5CC[C@]43C)[C@@H]12 | > 400 |  |  |  | 10 | 110 |  |  |  | 10 | > 400 | 5200 |  | Activity [3]: inactive; TC50 (PBMC): Not Active

Source: ChEMBL document CHEMBL1141017, “Triterpene based compounds with potent anti-maturation activity against HIV-1” (Bioorg Med Chem Lett, 2008)
